The values that follow come from EPA's ToxRefDB 2.

For series [1], the system named is rat. The following applies: Subchronic oral toxicity in rodents, sprague dawley, Feed, dose end: 13 week, group: systemic, systemic / in life observation / body weight / body weight + systemic / in life observation / body weight / body weight gain + systemic / ….
The test system of series [2] is dog. The note with it: Subchronic oral toxicity in nonrodent, beagle, Capsule, dose end: 90 day, group: systemic.
For series [3], the system named is dog. The note with it: Chronic toxicity; beagle; Oral; Capsule; dose end: 12 month; group: systemic; systemic / pathology microscopic / urinary bladder / calculus + systemic / pathology microscopic / urinary bladder / crystals + systemic / ….
The test system of series [4] is rat. The note with it: Combined chronic toxicity/carcinogenicity; sprague dawley; Oral; Feed; dose end: 22 month; group: systemic; systemic / clinical chemistry / albumin / albumin + systemic / pathology microscopic / heart / mineralization + systemic / pathology ….
Series [5] has as its system mouse. The note with it: Carcinogenicity; cd1; Oral; Feed; dose end: 18 month; group: systemic; systemic / pathology gross / urinary bladder / calculus + systemic / pathology microscopic / urinary bladder / hyperplasia + systemic / ….
Series [6] relates to rat. The following applies: Neurotoxicity screening battery, wistar, Oral, Feed, dose end: 90 day, group: cannot be grouped.
In series [7] the test system is rabbit. The following applies: Prenatal developmental toxicity study, himalayan, Oral, Gavage/Intubation, dose end: 19 GD.
The subject of series [8] is rat. The following applies: Combined chronic toxicity/carcinogenicity, sprague dawley, Oral, Feed, dose end: 115 week.
Series [9] deals with dog. The following applies: Chronic toxicity, beagle, Oral, Feed, dose end: 53 week.
For series [10], the system named is rabbit. The note with it: Prenatal developmental toxicity study, himalayan, Oral, Gavage/Intubation, dose end: 18 GD.
Series [11] deals with rat. The note with it: Subchronic oral toxicity in rodents, sprague dawley, Feed, dose end: 13 week.
The test system of series [12] is mouse. The note with it: Subchronic oral toxicity in rodents, b6c3f1, Feed, dose end: 13 week, group: systemic.
In series [13] the test system is rat. The following applies: Subchronic oral toxicity in rodents, fischer, Feed, dose end: 13 week, group: systemic, systemic / in life observation / body weight / body weight + systemic / in life observation / body weight / body weight gain + systemic / in….
[14] abbreviates: systemic / pathology microscopic / urinary bladder / calculus + systemic / pathology microscopic / urinary bladder / hemorrhage + systemic….
Where [15] appears, read: group: developmental, developmental / developmental malformation / bone / cranioschisis + developmental / developmental malformation / bone / exencephaly + ….
Where [16] appears, read: group: maternal, systemic / in life observation / clinical signs / swelling.
Where [17] appears, read: group: cholinesterase, cholinesterase / cholinesterase / cholinesterase / plasma cholinesterase (che) + cholinesterase / cholinesterase / cholinesterase / brain (….
[18] abbreviates: group: systemic, systemic / pathology microscopic / liver / eosinophilic focus.
Where [19] appears, read: group: cholinesterase, cholinesterase / cholinesterase / cholinesterase / cholinesterase (che).
[20] abbreviates: group: systemic, systemic / clinical chemistry / alkaline phosphatase (alp/alk) / alkaline phosphatase (alp/alk).
The mark [21] stands for this setting: group: maternal, reproductive / reproductive performance / aborted / aborted + reproductive / reproductive performance / resorptions / resorptions + systemic….
Where [22] appears, read: group: cholinesterase, cholinesterase / cholinesterase / cholinesterase / erythrocyte cholinesterase (che).
Where [23] appears, read: group: systemic, systemic / organ weight / liver / relative to body weight + systemic / pathology microscopic / liver / necrosis.
Setting [24] is: systemic / organ weight / liver / relative to body weight + systemic / pathology microscopic / liver / pigmentation.

Where only a bound is given, the exact number is not on record here.

In the case of `CCS(=O)(=O)c1nc2ccccn2c1S(=O)(=O)NC(=O)Nc1nc(OC)cc(OC)n1` [Sulfosulfuron], the LEL in series [1] is 1280 mg/kg/day; in series [2] (systemic / pathology microscopic / urinary bladder / calculus) it was 100 mg/kg/day; in [3], 500 mg/kg/day; in series [4], 244 mg/kg/day; in [5] it was 394 mg/kg/day. Further, the LOAEL (in general, the lowest tested level that showed an adverse finding) in [1] was 1280 mg/kg/day; in [2] (systemic / urinalysis / sediment microscopic / crystalluria), 300 mg/kg/day; in [3] it was 500 mg/kg/day; in [4], 244 mg/kg/day; in series [5], 394 mg/kg/day. The NEL in series [1] was 370 mg/kg/day; in series [2] (setting [14]), 30 mg/kg/day; in series [3], 100 mg/kg/day; in [4], 24.4 mg/kg/day; in series [5] it was 93.4 mg/kg/day. In addition, the no observed adverse effect level (NOAEL) (commonly the highest dose or exposure tested at which no adverse effect was seen) in series [1] is 370 mg/kg/day; in series [2] (setting [14]), 100 mg/kg/day; in series [3], 100 mg/kg/day; in [4] it was 24.4 mg/kg/day; in [5], 93.4 mg/kg/day.

Consider `CC(Cc1ccc(C(C)(C)C)cc1)CN1C[C@@H](C)O[C@@H](C)C1` (stereo partly drawn) [(2R,6S)-Fenpropimorph], for which the LEL turned out to be 0.8 mg/kg/day in [6] (cholinesterase / cholinesterase / cholinesterase / cholinesterase (che)); 30 mg/kg/day in series [7] (setting [15]); 30 mg/kg/day in series [7] (setting [16]); 0.2 mg/kg/day in [8] (setting [17]); 0.2 mg/kg/day in series [8] (setting [18]); 12.3 mg/kg/day in series [9] (setting [19]). The LEL in [9] (setting [20]) turned out to be 12.3 mg/kg/day; in [10] (group: developmental, developmental / developmental malformation / general / [other] + developmental / developmental malformation / bone / misshapen) it was 36 mg/kg/day; in series [10] (setting [21]), 36 mg/kg/day; in [11] (setting [22]), 0.465 mg/kg/day; in series [11] (setting [23]) it was 0.768 mg/kg/day. Also, the NEL was 0.1 mg/kg/day in [6] (cholinesterase / cholinesterase / cholinesterase / cholinesterase (che) + systemic / clinical chemistry / alanine aminotransferase (alt/sgpt…); 15 mg/kg/day in series [7] (setting [15]); 15 mg/kg/day in series [7] (setting [16]); under 0.2 mg/kg/day in [8] (setting [17]); under 0.2 mg/kg/day in series [8] (setting [18]); 3.2 mg/kg/day in series [9] (setting [19]). The NEL in series [9] (setting [20]) was 3.2 mg/kg/day; in series [11] (setting [22]), under 0.465 mg/kg/day; in series [11] (setting [23]), 0.382 mg/kg/day. The LOAEL in series [6] (systemic / organ weight / liver / absolute + systemic / organ weight / liver / relative to body weight) was 7.1 mg/kg/day; in series [7] (setting [15]) it was 30 mg/kg/day; in series [7] (setting [16]) it was 30 mg/kg/day; in series [8] (setting [17]), over 8.8 mg/kg/day; in series [8] (group: systemic, systemic / pathology microscopic / liver / hypertrophy + systemic / pathology microscopic / liver / eosinophilic focus + systemic / …) it was 8.8 mg/kg/day; in series [9] (setting [19]), 12.3 mg/kg/day. In addition, the LOAEL in series [9] (setting [20]) was 12.3 mg/kg/day; in series [10] (group: developmental, developmental / developmental malformation / general / [other]), 36 mg/kg/day; in [10] (setting [21]) it was 36 mg/kg/day; in series [11] (setting [19]) it was over 1.54 mg/kg/day; in [11] (setting [23]), 1.54 mg/kg/day. The NOAEL in [6] (systemic / organ weight / liver / absolute + systemic / organ weight / liver / relative to body weight + cholinesterase / cholinesterase / …) was 0.7 mg/kg/day; in series [7] (setting [15]) it was 15 mg/kg/day; in [7] (setting [16]), 15 mg/kg/day; in series [8] (setting [17]), at least 8.8 mg/kg/day; in [8] (group: systemic, systemic / pathology microscopic / liver / hypertrophy + systemic / organ weight / liver / relative to body weight), 1.7 mg/kg/day; in series [9] (setting [19]) it was 3.2 mg/kg/day. In addition, the NOAEL in series [9] (setting [20]) was 3.2 mg/kg/day; in series [11] (setting [19]) it was at least 1.54 mg/kg/day; in series [11] (setting [23]) it was 0.768 mg/kg/day.

On to `Nc1c(Br)cc(Br)c2c1C(=O)c1ccccc1C2=O` [1-Amino-2,4-dibromoanthraquinone], for which, in series [12] (setting [24]), the LEL came out at 500 mg/kg/day and the NEL was under 500 mg/kg/day. In series [12] (systemic / pathology microscopic / liver / hypertrophy), this molecule had an LOAEL of 1850 mg/kg/day. The no-observed-adverse-effect level (NOAEL) in [12] (systemic / pathology microscopic / liver / hypertrophy + systemic / in life observation / body weight / body weight gain + systemic / in …) is 1080 mg/kg/day. Also, in [13], the LEL worked out at 150 mg/kg/day, the LOAEL is 150 mg/kg/day, the NEL is under 150 mg/kg/day and the no observed adverse effect level (NOAEL) is under 150 mg/kg/day.
